Reference: patent publication US8410104B2, “Pyridazines” (Hoffmann-La Roche Inc., priority 2009, dated 2013)

Each molecule was assayed against T1, human GABA A α5 receptor (α5β3γ2) (Homo sapiens, UniProt P18507+P31644) (assay: [3H]flumazenil competition binding assay, human GABA A α5β3γ2 receptors in HEK293 cells). Details: human receptors transiently transfected in HEK293; 0.5 nM [3H]flumazenil; means of two determinations; read-out: hKi GABA A α5.
T1 construct: expressed in transfected cells; host or cells: HEK293 cells, transiently transfected; membranes prepared from cell pellets
Description: Membrane Preparation and Binding Assay
The affinity of compounds at GABA A receptor subtypes was measured by competition for [^3H]flumazenil (85 Ci/mmol; Roche) binding to HEK293 cells expressing rat (stably transfected) or human (transiently transfected) receptors of composition α1β3γ2, α2β3γ2, α3β3γ2 and α5β3γ2.
Cell pellets were suspended in Krebs-tris buffer (4.8 mM KCl, 1.2 mM CaCl2, 1.2 mM MgCl2, 120 mM NaCl, 15 mM Tris; pH 7.5; binding assay buffer), homogenized by polytron for ca. 20 sec on ice and centrifuged for 60 min at 4° C. (50000 g; Sorvall, rotor: SM24=20000 rpm). The cell pellets were re-suspended in Krebs-tris buffer and homogenized by polytron for ca. 15 sec on ice. Protein was measured (Bradford method, Bio-Rad) and aliquots of 1 mL were prepared and stored at −80° C.
Radioligand binding assays were carried out in a volume of […] (96-well plates) which contained […] of cell membranes, [^3H]flumazenil at a concentration of 1 nM for α1, α2 and α3 subunits and 0.5 nM for α5 subunits and the test compound in the range of […]. Nonspecific binding was defined by 10^−5 M diazepam and typically represented less than 5% of the total binding. Assays were incubated to equilibrium for 1 hour at 4° C. and harvested onto GF/C uni-filters (Packard) by filtration using a Packard harvester and washing with ice-cold wash buffer (50 mM Tris; pH 7.5). After drying, filter-retained radioactivity was detected by liquid scintillation counting. Ki values were calculated using Excel-Fit (Microsoft) and are the means of two determinations.
`CCCCc1noc(C)c1COc1ccc(C(=O)NC2CCOC2)nn1` (racemic) [Example 8, Rac-6-(3-Butyl-5-methyl-isoxazol-4-ylmethoxy)-pyridazine-3-carboxylic acid (tetrahydro-furan-3-yl)-amide] was tested, and the Ki was 6.9 nM. For `CCCCc1noc(C)c1COc1ccc(C(=O)NC(C)C)nn1` [Example 1, 6-(3-Butyl-5-methyl-isoxazol-4-ylmethoxy)-pyridazine-3-carboxylic acid isopropylamide], the Ki was 12.8 nM. For `CCCCc1noc(C)c1COc1ccc(C(=O)NC2CCOCC2)nn1` [Example 2, 6-(3-Butyl-5-methyl-isoxazol-4-ylmethoxy)-pyridazine-3-carboxylic acid (tetrahydro-pyran-4-yl)-amide], the Ki was 16.6 nM. Work on `CCCCc1noc(C)c1COc1ccc(C(=O)N[C@H](C)CO)nn1` [Example 3, 6-(3-Butyl-5-methyl-isoxazol-4-ylmethoxy)-pyridazine-3-carboxylic acid ((R)-2-hydroxy-1-methyl-ethyl)-amide] yielded a Ki of 7 nM. `CCCCc1noc(C)c1COc1ccc(C(=O)NCC(C)(C)O)nn1` [Example 4, 6-(3-Butyl-5-methyl-isoxazol-4-ylmethoxy)-pyridazine-3-carboxylic acid (2-hydroxy-2-methyl-propyl)-amide] gave a Ki of 17.3 nM. Work on `CCCCc1noc(C)c1COc1ccc(C(=O)N[C@@H](C)CO)nn1` [Example 5, 6-(3-Butyl-5-methyl-isoxazol-4-ylmethoxy)-pyridazine-3-carboxylic acid ((S)-2-hydroxy-1-methyl-ethyl)-amide] yielded a Ki of 17.3 nM. Molecule `CCCCc1noc(C)c1COc1ccc(C(=O)N[C@H]2CCOC2)nn1` [Example 6, (S)-6-(3-Butyl-5-methyl-isoxazol-4-ylmethoxy)-pyridazine-3-carboxylic acid (tetrahydro-furan-3-yl)-amide] has a Ki of 8.6 nM. `CCCCc1noc(C)c1COc1ccc(C(=O)NC(C)CO)nn1` (stereo not drawn) [Example 7, 6-(3-Butyl-5-methyl-isoxazol-4-ylmethoxy)-pyridazine-3-carboxylic acid (2-hydroxy-1-methyl-ethyl)-amide] showed a Ki of 10.4 nM. With `CCCCc1noc(C)c1COc1ccc(C(N)=O)nn1` [Example 9, 6-(3-Butyl-5-methyl-isoxazol-4-ylmethoxy)-pyridazine-3-carboxylic acid amide] the Ki was 7.3 nM.
